Source: PMC5722265, “Leishmanicidal compounds of Nectria pseudotrichia, an endophytic fungus isolated from the plant Caesalpinia echinata (Brazilwood)” (Memórias do Instituto Oswaldo Cruz, 2018)
pIC50: −log10 of the molar value. ≈ marks a conversion by molar mass, not a printed value. Read-outs that look alike come from different tables or passages of the source.

Experiments:
[1] = test system: intracellular amastigote forms of Leishmania (Viannia) braziliensis; experiment: Antileishmanial assay on intracellular amastigotes of L. (V.) braziliensis LUC (firefly luciferase reporter) in THP-1 macrophages; type: cell-based; conditions: for pIC50: Leishmania braziliensis, intracellular amastigotes in THP-1 macrophages, luciferase activity, 72 h; for activity against amastigote forms of L. (V.) braziliensis (in words): L. (V.) braziliensis expressing firefly luciferase
Description: Assays with L. (V.) braziliensis - L. (V.) braziliensis (strain MHOM/BR/1994/H3227) promastigotes were maintained in minimum essential culture medium (α-MEM) (Gibco/Brl, Grand Island, NY, USA) supplemented with 10% (v/v) heat inactivated foetal bovine serum (FBS, Cultilab, Campinas, SP, Brazil), […] kanamycin, […] ampicillin, 2 mm L-glutamine, 5 mg/mL hemin, and 5 mm biopterin (Sigma-Aldrich, St. Louis, USA), at pH 7.0 and incubated at 25°C.
For this assay, we used L. (V.) braziliensis LUC expressing firefly luciferase as a reporter gene. The transfection was performed as previously described ([Roy et al. 2000]). Human monocyte-derived macrophage cell line, THP-1, was maintained in RPMI 1640 medium supplemented with 10% FBS and differentiated in the presence of 20 ng/mL phorbol myristate for 72 h at 37°C. Cells were infected with L. (V.) braziliensis LUC promastigotes at a parasite/macrophage ratio of 10:1 for 3 h in a white walled 96-well tissue culture plate. Non-internalised parasites were removed by five washes with HEPES/NaCl buffer (20 mm HEPES, 0.15 M NaCl, 10 mm glucose, pH 7.2). The infected cells were then treated with 1.5-200.0 µg/mL of sample-tests and 0.006-0.8 µM of amphotericin B (positive control). After 72 h, RPMI was aspirated and luciferase activity was assessed by adding 20 µL reconstituted One-Glo™ Luciferase Assay system solution as enzyme substrate, following the manufacturer's instructions (Promega, Madison, WI, USA). Luciferase activity was measured by luminescence detection in a SpectraMax M5 luminometer (Molecular Devices, Sunnyvale, CA, USA) using 1 s integration/well. Non-infected THP-1 macrophages were used as signal background while non-treated infected THP-1 macrophages were used as control for growth comparison. Antileishmanial activity was expressed as the concentration required to inhibit 50% of parasite growth, as calculated by sigmoidal regression analyses using GraphPad Prism (Version 6.0c, GraphPad Software Inc., La Jolla, CA, USA).

THP-1 cells = experiment: Toxicity on host THP-1 macrophages, MTT; type: cell-based; conditions: for pIC50: Homo sapiens, read-out: THP-1 IC50; for toxicity to THP-1 cells (in words): concentration range tested
Description: To assess toxicity of the compounds on the host cells, THP-1 macrophages were seeded in 96-well plates at a density of 2 × 10^5 cells per well, differentiated in the presence of 20 ng/mL phorbol myristate for 72 h at 37°C, and treated with 1.5-200.0 µg/mL of the compounds or 1.5-200.0 μM of Amphotericin B. After 72 h treatment with compounds, cell death was estimated using MTT, which is metabolised by viable cells resulting in a purple product that can be quantified using a spectrophotometer (absorbance at 570 nm). The results were calculated from the absorbance measurements using the percentage of cell death in relation to the untreated cell controls.

Vero cells = experiment: Cytotoxicity assay using Vero cells, MTT; type: cell-based, African green monkey; conditions: for pIC50: Chlorocebus sabaeus, Vero, 72 h, read-out: Vero IC50; for toxicity to Vero cells (in words): concentration range tested; for selectivity index (SI): IC50 Vero cells/IC50 L. (V.) braziliensis
Description: Cytotoxicity assay using Vero cells - African green monkey kidney cells (Vero) were used as model of normal cells and were provided by Erna Kroon (Federal University of Minas Gerais, Brazil). The cells were maintained in DMEM medium (Sigma-Aldrich), containing 5% FBS (Gibco/Brl), enriched with 1% antibiotic solution (100 IU/mL penicillin and 100 µg/mL streptomycin, Gibco/Brl). Vero cells were inoculated in 96 well plates at 1 × 10^4 cells/well and the plates incubated for 24 h at 37°C. The samples and amphotericin B (positive control) were dissolved in DMSO (Sigma-Aldrich). […] All cell cultures were incubated in a 5% CO2/95% humidified air atmosphere at 37°C for 72 h. Wells with 0.5% v/v DMSO were used as a negative control. All medium and reagents used in the assays were endotoxin free. Cell viability was estimated by measuring the mitochondrial reduction of MTT ([Monks et al. 1991]). The samples were tested in triplicate in two independent experiments. The results were expressed as percentage of viability in relation to the negative control (DMSO, 0.5% v/v), calculated as follows: percentage of cell viability (%) = [(treated mean OD / negative control) x 100] and obtained from two independent experiments performed in triplicate. The IC50 values were calculated by non-linear regression using GraphPad Prism® Version 5.01 software. The selective index (SI) was calculated by dividing IC50 Vero cells/IC50 L. (V.) braziliensis.

[2] = test system: Leishmania promastigotes and intracellular amastigotes in macrophages; design: method as in Roy et al. (2014); conditions: ref Roy et al. (2014); cited from earlier work
[3] = design: method as in DrugBank Database, DrugBank Version 5.0; conditions: Experimental property; ref DrugBank Database, DrugBank Version 5.0; cited from earlier work
[4] = test system: amastigote forms of L. (V.) braziliensis strain MHOM/BR/75/M2903; design: method as in de Morais-Teixeira et al. 2014; conditions: different time periods of drug exposure (three, five, and seven days); ref de Morais-Teixeira et al. 2014; cited from earlier work
tumour xenographs = test system: tumour xenographs; design: method as in Rahier et al. (2015); conditions: ref Rahier et al. (2015); cited from earlier work
[5] = test system: L. amazonensis promastigotes; design: method as in Brissow et al. 2017; conditions: ref Brissow et al. 2017; cited from earlier work
KB cells = test system: KB cells; design: method as in Anderson et al. 1985; conditions: human mouth epidermoid carcinoma; ref Anderson et al. 1985; cited from earlier work
[6] = test system: BC-1 human breast cancer cells; design: method as in Anderson et al. 1985; conditions: ref Anderson et al. 1985; cited from earlier work
[7] = test system: Plasmodium falciparum (3D7); design: method as in Calcul et al. 2013; conditions: at 25 nM; ref Calcul et al. 2013; cited from earlier work
A549 cells = test system: A549 cells; design: method as in Calcul et al. 2013; conditions: at 25 nM; ref Calcul et al. 2013; cited from earlier work

| Molecule | pIC50 [1] | pIC50 (THP-1 cells; THP-1, MTT, 72 h) | pIC50 (Vero cells; MTT) | pIC50 [4] | also measured |
| --- | --- | --- | --- | --- | --- |
| C=C1[C@@H](C)[C@H]2[C@H](Cc3ccccc3)NC(=O)[C@]23[C@H](OC(C)=O)/C=C/[C@@](C)(O)C(=O)[C@@H](C)C/C=C/[C@H]3[C@@H]1O [Compound 7, (+)-cytochalasin D] | 4.14 |  |  |  | pIC50 (THP-1 cells; THP-1, 72 h): < 3.70; pIC50 (Vero cells): < 3.70; effect on Leishmania attachment and intracellular amastigote load in macrophages (in words) [2]: reduce the attachment of Leishmania promastigotes and the intracellular amastigote load |
| CC(C)[C@H]1CC[C@H]2COC(=O)[C@H]2[C@@H]1/C=C(\CO)C(=O)O [Compound 6, xylaric acid D] | < 3.70 | < 3.70 | < 3.70 |  | activity against amastigote forms of L. (V.) braziliensis (in words) [1]: activity against L. (V.) braziliensis was lost |
| N=C(N)c1ccc(OCCCCCOc2ccc(C(=N)N)cc2)cc1 [Pentamidine, pentamidine] |  |  |  |  | Log P [E] [3]: 4 |
| CCCCCCCCCCCCCCCCOP(=O)([O-])OCC[N+](C)(C)C [miltefosine] |  |  |  | 5.27 to 6.10 |  |
| CC(C)[C@H]1CC[C@@]2(CO2)[C@H]2C(=O)OCC(C(=O)O)=C[C@H]12 [heptelidic acid] |  |  |  |  | activity in vivo (in words) (tumour xenographs): very modest activity in vivo |
| NC[C@@H]1O[C@H](O[C@H]2[C@@H](O)[C@H](O[C@@H]3[C@@H](O)[C@H](N)C[C@H](N)[C@H]3O[C@H]3O[C@H](CO)[C@@H](O)[C@H](O)[C@H]3N)O[C@@H]2CO)[C@H](N)[C@@H](O)[C@@H]1O [paromomycin] |  |  |  | 3.46 to 3.63 |  |
| CC[C@H]1OC(=O)[C@H](C)[C@@H](O[C@H]2C[C@@](C)(OC)[C@@H](O)[C@H](C)O2)[C@H](C)[C@@H](O[C@@H]2O[C@H](C)C[C@H](N(C)C)[C@H]2O)[C@](C)(O)C[C@@H](C)CN(C)[C@H](C)[C@@H](O)[C@]1(C)O [azithromycin] |  |  |  | 5.24 |  |
| CC(=O)OCCCCC/C=C(/C(=O)O)[C@H](C)C(=O)O [Compound 2, (+)-6′-acetoxy-piliformic acid] | 4.55 | < 3.70 | < 3.70 |  | toxicity to THP-1 cells (in words) (THP-1 cells; MTT): low toxicity; toxicity to Vero cells (in words) (Vero cells; MTT): low toxicity |
| 18-des-hydroxy cytochalasin H |  |  |  |  | IC50, viability of L. amazonensis promastigotes [5]: 9.2 µg/mL |
| CC(C)C1CCC2(O)COC(=O)C2C1C=C(CO)C(=O)O (stereo not shown) [Compound 5, hydroheptelidic acid] | 4.61 | < 3.70 | < 3.70 |  | activity against amastigote forms of L. (V.) braziliensis (in words) [1]: showed activity; toxicity to THP-1 cells (in words) (THP-1 cells; MTT): low toxicity; toxicity to Vero cells (in words) (Vero cells; MTT): low toxicity |
| C[C@@H]1[C@H](O)[C@@H](C)/C=C/C=C/C=C/C=C/C=C/C=C/C=C/[C@H](O[C@@H]2O[C@H](C)[C@@H](O)[C@H](N)[C@@H]2O)C[C@@H]2O[C@](O)(C[C@@H](O)C[C@@H](O)[C@H](O)CC[C@@H](O)C[C@@H](O)CC(=O)O[C@H]1C)C[C@H](O)[C@H]2C(=O)O [Amphotericin B, reference compound] | 6.92 | 4.92 | 4.74 | 7.22 to 7.70 |  |
| CC(=O)O[C@@]1(CO)CC[C@H](C(C)C)[C@H]2C=C(C(=O)O)COC(=O)[C@@H]21 [Compound 1, (+)-(5aS,6R,9S,9aS)-9-(acetyloxy)-9-(hydroxymethyl)-1-oxo-6-(propan-2-yl)-1,3,5a,6,7,8,9,9a-octahydro-2-benzoxepine-4-carboxylic acid] | 4.67 | < 3.70 | < 3.70 |  | activity against amastigote forms of L. (V.) braziliensis (in words) [1]: active; toxicity to THP-1 cells (in words) (THP-1 cells; MTT): low toxicity; selectivity index (SI) (Vero cells): 9.3; toxicity to Vero cells (in words) (Vero cells; MTT): low toxicity |
| Meglumine antimoniate |  |  |  | 3.48 to 3.75 |  |
| CCCCC/C=C(/C(=O)O)[C@H](C)C(=O)O [Compound 4, (+)-piliformic acid] | 4.11 | < 3.70 | < 3.70 |  | selectivity index (SI) (Vero cells): 2.5; IC50 KB cells (KB cells): 13 µg/mL (≈ 60.7 µM); IC50 BC-1 human breast cancer cells [6]: 5 µg/mL (≈ 23.3 µM); activity against Plasmodium falciparum (3D7) (in words) [7]: inactive; activity against A549 cells (in words) (A549 cells): inactive |
| C=CCCC/C=C(/C(=O)O)[C@H](C)C(=O)O [Compound 3] | < 3.70 | < 3.70 | < 3.70 |  | activity against amastigote forms of L. (V.) braziliensis (in words) [1]: not active |
